This note sets out measurements from a melting point compilation (Tetko et al.; mined from patent text by program, amines drawn as free bases though some values may be those of a salt).

As a reminder, the melting point is the temperature, or range, at which the solid turns liquid.

Residues, ends and D or L forms follow the SMILES beside them. *: point of attachment. Cbz = O=C(OCc1ccccc1)*

For the molecule `COc1cc(C(=O)NS(=O)(=O)c2ccccc2Cl)ccc1Cc1cn(C)c2ccc(CCNC(=O)N(C)C)cc12`, the melting point was in the range of 208 to 211 °C.
To `O=C(Sc1ccc(O)cc1)c1cccc(C(=O)Sc2ccc(O)cc2)c1` belongs 218 to 221 °C; to `Cn1c(CC(=O)NC2CN3CCC2CC3)cc2ccccc21` (configuration not stated), 185 to 187 °C.
To `O=S1(=O)Cc2ccc(Cl)cc2C(c2ccc(F)cc2)=NN1` belongs 195 to 198 °C; to `CC1(C)Sc2oc(S(N)(=O)=O)cc2C1=O`, 167 to 169 °C.
To `NC(=O)c1nn(-c2c(Cl)cc(C(F)(F)F)cc2Cl)c(N)c1S(=O)(=O)C(F)(F)F` belongs 217 °C.
The molecule `CCCCn1c(N)c(N=O)c(=O)n(CC2CCCCC2)c1=O` returned a melting point of 229 to 230 °C.
To `CCCc1c(OCCCOc2ccc3c(c2CCC)OC(C)(CCC(=O)O)CC3=O)ccc(C(C)=O)c1O` (configuration not stated) belongs 80 to 83 °C; to `CCCn1nc(C(C)C)c(C(=O)OCc2cccc(C(=O)c3ccccc3)c2)c1Cc1ccc(-c2ccccc2S(=O)(=O)NC(C)(C)C)c(F)c1`, 35 to 45 °C; to `O=c1[nH]c(=O)n2c3c(cccc13)CCC2CO` (configuration not stated), 205 to 207 °C.
Turning to `c1ccc(-c2c3ccccc3nc3ccccc23)nc1`, the melting point lay in the range of 192 to 205 °C.
To `OCc1ccc(N2CCN(Cc3ccc4ccccc4n3)CC2)cc1` belongs 126 to 127 °C; to `O=c1oc2ccccc2cc1S(=O)(=O)Cc1ccc(Cl)cc1Cl`, 228 to 229 °C; to `CCCCCCCCCCCCCCCCCCNC(=O)c1ccc(OC(C)=O)cc1`, 106 °C.
In the case of `CC(=O)C(C(C)=O)=C1NC(=O)N(Cc2ccccc2)C1=O`, the melting point is 211 to 212 °C.
Under `CC(=O)c1ccc(-c2ccccc2)c(F)c1` stands 97 to 97.5 °C; under `CC(C)(O)c1ccc(CNC(=O)c2cccnc2Oc2cccc(S(C)(=O)=O)c2)cc1`, 51 to 53 °C.
`CCCCCCCCCCCCCCCCCCNC(=O)C(=O)NCCc1ccc(O)cc1` registered a melting point of 167 °C.
Under `Cc1nc(I)cn1-c1ccc(F)cc1` stands 151 °C.
In turn, `O=C(Nc1cccc(S(=O)(=O)C(F)(F)F)c1)c1c(O)ccc2ccccc12` yielded a melting point of 179 to 180 °C.
Regarding `N#Cc1cnc2cc3c(cc2c1Cl)ncn3CCN1CCOCC1`, the melting point is 205 to 207 °C.
Molecule `COc1ccc(C2=NN(C3CCN(S(=O)(=O)N(C)C)CC3)C(=O)CC2)cc1OC` yielded a melting point of 103 to 106 °C.
Under `COc1cc2cc(C(C#N)(C(C)CC#N)N3CCOCC3)sc2cc1OC` (configuration not stated) stands 162 to 165 °C; under `O=C(Nc1ccc(-c2nnn[nH]2)cc1)C(=O)N1CCC(Cc2ccccc2)CC1`, 127 to 129 °C; under `CC(=O)c1cccn1Cc1ccco1`, 42 to 43 °C.
Molecule `O=C(O)CCNC(=O)c1ccccc1SSc1ccccc1C(=O)NCCC(=O)O` registered a melting point of 201 to 203 °C.
To `CCCOc1cc(CCCOc2c(CC(=O)O)cccc2OC)n(Cc2ccc3ccccc3n2)n1` belongs 97 to 98 °C; to `Cc1sc(-c2ccccc2)nc1-c1ccc(Cl)cc1`, 90 to 91 °C.
Under `CCOC(=O)c1cn(Cc2ccccc2)nc1OCc1ccc(OCc2nc(-c3ccco3)oc2C)c(O)c1` stands 134 to 135 °C.
To `COc1c(Cl)ccc(-c2cc(N)c(OC(F)F)c(Cl)n2)c1F` belongs 152 to 154 °C; to `CCCN1CC(NC(=O)C(C)(C)C)CC2c3cccc4[nH]c(Cl)c(c34)CC21` (configuration not stated), 146 to 147 °C.
In turn, `O=C(O)C1CSC(c2ccc(OCCO[N+](=O)[O-])cc2)N1` (configuration not stated) came in with a melting point of 139 to 141 °C.
To `C#Cc1ccc2c(c1)c1cc(-c3ccc(Cl)cc3Cl)c(=O)n(C)c1n2C` belongs 184 to 185 °C; to `COC(=O)c1cccc(C=CC(=O)c2cc(OC)ccc2OC)c1`, 108 to 110 °C.
Under `OC1COC(c2ccc(Cl)cc2)OC1` (configuration not stated) stands 95 to 100 °C.
`CNc1nc(Nc2ccc(Cl)c(Cl)c2)ncc1NC(C)=O` gave a melting point of 267 °C.
To `CC(C)n1nc(-c2sc(NC(=O)c3cc(C(F)(F)F)cc(C(F)(F)F)c3)nc2-c2ccccc2)ccc1=O` belongs 207 to 208 °C; to `O=C1CCC(N2C(=O)c3cccc(NC(=O)c4cccc(Cl)c4)c3C2=O)C(=O)N1` (configuration not stated), 257 to 259 °C.
Under `CCOCc1nnc2c(C)c(Cl)ccn12` stands 92.9 °C.
To `O=C(O)Cc1ccc(Br)cc1C(=O)O` belongs 210 to 213 °C; to `N#Cc1ccc(C(=O)NCCCCn2cnc3c(N)nc4ccccc4c32)cn1`, 125 to 129 °C; to `NC(=O)c1cccc(OCCCCCn2cnc3c(Cl)ncnc32)c1`, 132 to 133 °C.
`CCCCCCCCCCN(O)C(=O)N(C)C`: the melting point was in the range of 44 to 45 °C.
Under `CN1CCN(c2ccc(Nc3ncc4ccc(-c5cccc(CN(C)S(C)(=O)=O)c5)n4n3)cc2)CC1` stands 229 to 230 °C.
With `CS(=O)(=O)c1ccc(-c2cc(Br)sc2-c2ccc(F)cc2)cc1`, the melting point lay in the range of 122 to 124 °C.
Under `O=CNc1ccc(-c2cc[nH]n2)cc1` stands 139 to 141 °C.
To `CCCOc1ccc2c(c1)C(c1ccc(OC)cc1-c1cccc(C(=O)O)c1)C(C(=O)O)C2c1ccc2c(c1)OCO2` (configuration not stated) belongs 257 to 268 °C.
To `c1ccc2c(c1)nc(Nc1ccc3cn[nH]c3c1)c1nc(C3CCCC3)[nH]c12` belongs 235 to 236 °C; to `COc1ccc(N2CCN(c3c(C)c(C)c4c(c3C)C[C@@H](C)O4)CC2)cc1`, 127 to 128 °C.
Take `Fc1ccc2[nH]cc([C@H]3CC[C@H](NCc4ccccc4)CC3)c2c1`: the melting point is 131 to 133 °C.
To `O=C(O)c1ccc(OC(=O)c2ccc(O)c(C34CC5CC(CC(C5)C3)C4)c2)nc1` belongs 112 to 113 °C; to `NC1=NC(c2cccc(-c3cccnc3F)c2)(c2ccc3c(c2)OCCO3)C2=NCCCN12` (configuration not stated), 125 to 140 °C.
To `CC(C)(C)CCC(=O)c1ccc2cc(-c3ccc4c(Br)c(OCC(=O)O)ccc4c3)sc2c1` belongs 246 to 247 °C.
To `O=C(CCCCc1ccccc1)Nc1ccc(C(=O)O)cc1` belongs 227 to 230 °C.
`CC(=O)Nc1cc(C)c2c(c1O)C(=O)CC2` showed a melting point of 193 to 198 °C.
To `CCOC=Nc1nc(-c2ccc(C3CCCCC3)cc2)cs1` belongs 84 to 85 °C; to `O=C(Nc1nnc(C2CC2)o1)C(c1ccccc1)c1ccccc1`, 159 to 160 °C; to `CCCCCCN1CCN(Cc2ccc(NC(N)=S)cc2)C(=O)C1=O`, 197 to 198 °C.
Molecule `CC(C)C(O)C(O)C(O)C(CC1CCCCC1)NC(=O)OC(C)(C)C` (configuration not stated) had a melting point of 151 to 152 °C.
Under `FC(F)(F)c1ccc(C2=NNCC2c2ccccc2)cc1` (configuration not stated) stands 98 to 112 °C.
For the molecule `Cc1cc(Br)cc(C(=O)Nc2ccc(F)cn2)n1`, the melting point came out at 160 °C.
To `Cc1nc2cnccc2n1-c1ccc2c(c1)CC(C(=O)O)C2` (configuration not stated) belongs 264 to 267 °C.
Under `CNC=Nc1cnc2ccccc2c1` stands 142 to 143 °C; under `COC(=O)[C@H](Cc1c[nH]cn1)NC(=O)[C@H](Cc1ccccc1)NC(=O)[C@H](Cc1ccccc1)NC(=O)OCc1ccccc1` (Cbz-Phe-Phe-His-OMe), 204 to 206 °C; under `Cc1nc(-c2ccc(C(F)(F)F)cc2)oc1CSc1ccc(OCC(=O)O)cc1`, 131 to 133 °C.
Under `CCCn1cc(C(=O)NCc2ccc(Cl)cc2)c(=O)c2cc(CCl)sc21` stands 186 to 188 °C.
`O=C(Cc1ccccc1)N1CCc2[nH]c(=O)n3nc(-c4ccccc4F)nc3c2C1`: the melting point fell in the range of 310 to 313 °C.
To `CC(=O)NCC1CN(c2cc(F)c(-c3cccnc3)c(F)c2)C(=O)O1` (configuration not stated) belongs 218 to 219 °C; to `Brc1ccc(Cc2nccc(-c3ccc(Br)cc3)n2)cc1`, 93 to 94 °C; to `CCc1c(-c2ccc(OCc3ccccc3)cc2)c2c(C(=O)N(C)C)cc3cccc1n32`, 92 to 95 °C.
Under `COc1ccc(N2CCN(c3ccc([N+](=O)[O-])cc3)CC2)cc1` stands 195 °C.
To `CC1Cc2c(N=C=O)ccc(Cl)c2O1` (configuration not stated) belongs 169 to 171 °C; to `CC(C)N1CC(c2cc(CCc3ccccc3)ncn2)=C(O)C1=O`, 156 to 159 °C; to `CCc1ccc(-c2ccc3c(c2)C=C(C(=O)O)CCS3(=O)=O)cc1`, 260 to 265 °C.
For the molecule `CC1(C=C(Cl)Cl)CN(C(=O)Nc2ccc(OC(F)(F)F)cc2)N=C1c1ccc(Cl)cc1` (configuration not stated), the melting point lay in the range of 138 to 141 °C.
Under `CCOC(=O)c1ccc(-c2c(Cl)c(CN3C(=O)CCC3=O)nc3sc4c(c23)CCNC4)cc1` stands 213 to 214 °C.
The molecule `O=c1[nH]c2cc(Cl)cc(Cl)c2c(=O)n1CCc1ccccc1` yielded a melting point of 230 to 232 °C.
Under `CCOC(=O)c1cc2n(c1)CNc1ccc(Br)cc1-2` stands 169 to 171 °C; under `COc1c(N2C[C@H]3CCOC[C@@]3(N)C2)c(F)cc2c(=O)c(C(=O)O)cn([C@@H]3C[C@@H]3F)c12`, 132 to 134 °C.
Under `Cc1c(CCNC(=O)OC(C)(C)C)c2cc(S(=O)(=O)c3ccc(C(F)(F)F)cc3)ccc2n1C` stands 124 to 128 °C.
Under `CCCCCCc1ccc(C=CC(=O)c2ccc(OCC=C(C)C)cc2OCC(=O)OCC)cc1` stands 56 to 57 °C.
With `CC(=O)OC1CCC2(C)C(CCC3C2CCC2(C)C(C(=O)C=[N+]=[N-])CCC32)C1` (configuration not stated), the melting point is 135 to 136 °C.
Under `O=C(O)[C@@H]1CCCN1C(=O)C1CCCCN1` (some centres not stated) stands 181 °C; under `CCOC(=O)c1cc2sc(C)c(N(C)S(=O)(=O)c3cccs3)c2[nH]1`, 161 °C; under `O=c1c2cc(O)ccc2oc2c([N+](=O)[O-])ccc(Cl)c12`, 290 to 292 °C.
Under `C[C@]12CCC(=O)N[C@@H]1CCc1cc(Sc3ccccc3F)ccc12` stands 196 to 198 °C; under `Brc1sc2ccccc2c1Br`, 57 to 59 °C.
